Source: patent publication EP0166355A2, “Substituted aminophenyl compounds and acylaminophenyl compounds and pharmaceutical compositions containing them” (Merck & Co., Inc., priority 1984, dated 1986)
Peptide text beside a SMILES is read from it. * marks the point of attachment. X1 = O=C(c1ccccc1)c1ccccc1N*; Cbz = O=C(OCc1ccccc1)*

Each compound was assayed against T1, CCK receptor (Rattus norvegicus, UniProt P30551) (assay: CCK Receptor Binding (Pancreas), 125I-CCK-33). Details: inhibition of 125I-CCK-33 binding, rat pancreas membranes, 37°C, 30 minutes; read-out: IC50(µM) ^125I-CCK Pancreas.
T1 construct: The whole pancreas was dissected free of fat tissue and was homogenized; from tissue; host or cells: rat whole pancreas membrane homogenate
T1 sequence (P30551 1-444): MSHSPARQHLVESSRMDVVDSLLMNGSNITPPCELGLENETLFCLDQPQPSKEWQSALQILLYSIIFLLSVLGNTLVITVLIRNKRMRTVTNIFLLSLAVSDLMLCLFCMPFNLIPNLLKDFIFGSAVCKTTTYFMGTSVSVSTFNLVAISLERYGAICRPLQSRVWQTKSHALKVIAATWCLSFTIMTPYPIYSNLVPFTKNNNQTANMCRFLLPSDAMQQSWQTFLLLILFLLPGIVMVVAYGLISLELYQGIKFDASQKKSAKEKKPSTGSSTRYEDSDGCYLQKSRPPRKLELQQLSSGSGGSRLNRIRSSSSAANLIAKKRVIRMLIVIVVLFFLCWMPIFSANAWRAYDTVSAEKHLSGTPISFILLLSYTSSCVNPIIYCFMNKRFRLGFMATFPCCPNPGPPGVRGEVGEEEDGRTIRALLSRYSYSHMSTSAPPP
Design: species or system rats
Method: 1. CCK Receptor Binding (Pancreas)
CCK-33 was radiolabeled with ^125 I-Bolton Hunter reagent (2000 Ci/mmole) as described by Sankara et al. (J. Biol. Chem. 254: 9349-9351, 1979). Receptor binding was performed according to Innis and Snyder (Proc. Natl. Acad. Sci. 77: 6917-6921, 1980) with the minor modification of adding the additional protease inhibitors, phenylmethane sulfonyl fluoride and o-phenanthroline. The latter two compounds have no effect on the ^125I-CCK receptor binding assay.
Male Sprague-Dawley rats (200-350g) were sacrificed by decapitation. The whole pancreas was dissected free of fat tissue and was homogenized in 20 volumes of ice-cold 50 mM, Tris HC1 (pH 7.7 at 25°C) with a Brinkmann Polytron PT 10. The homogenates were centrifuged at 48,000 g for 10 min. Pellets were resuspended in Tris Buffer, centrifuged as above and resuspended in 200 volumes of binding assay buffer (50 mM Tris HC1, pH 7.7 at 25°C, 5 mM dithiothrietol, 0.1 mM bacitracin, 1.2 mM phenylmethane sulfonyl fluoride and 0.5 mM o-phenanthroline). For the binding assay, 25 µl of buffer (for total binding) or unlabeled CCK-8 sulfate to give a final concentration of lµM (for nonspecific binding) or the compounds of Formula I (for determination inhibition of 125I-CCK binding) and 25 ul of ^125 I-CCK-33 (30,000-40,000 cpm) were added to 450 µl of the membrane suspensions in microfuge tubes. All assays were run in duplicate or triplicate. The reaction mixtures were incubated at 37°C for 30 minutes and centrifuged in a Beckman Microfuge (4 minutes) immediately after adding 1 ml of ice-cold incubation buffer. The supernatant was aspirated and discarded, pellets were counted with a Beckman gamma 5000. For Scatchard analysis (Ann. N.Y. Acad. Sci. 51: 660, 1949), ^125I-CCK-33 was progressively diluted with increasing concentrations of CCK-33.

SMILES	IC50 [µM]
CC(C)(C)OC(=O)N[C@@H](Cc1c[nH]c2ccccc12)C(=O)Nc1ccccc1C(=O)c1ccccc1F [Example 3, 2-N-(N^a-Boc-L-tryptophanyl)amino-2'-fluorobenzo phenone]	3.7
O=C(NC(Cc1cccs1)C(=O)Nc1ccccc1C(=O)c1ccccc1F)c1ccsc1 (racemic) [Example 12, 2-N-(N^a-3-Thienoyl-DL-B-(2-thienyl)alanyl)amino 2'-fluorobenzophenone]	1.3
O=C(CCc1c[nH]c2ccccc12)Nc1ccc(Cl)cc1C(=O)c1ccccc1 [Example 13, 2-N-[3-(3'indolyl)propanoyl]amino-5-chlorobenzophenone]	10
CSCC[C@H](NC(=O)OC(C)(C)C)C(=O)NCC(=O)N[C@@H](Cc1c[nH]c2ccccc12)C(=O)Nc1ccccc1C(=O)c1ccccc1 [Example 19, 2-N-(N^a-Boc-L-methionyl-glycyl-L-tryptophanyl)aminobenzophenone]	2.4

Now from value to compound:

IC50 [µM]	SMILES
1	CC(=O)N[C@@H](Cc1c[nH]c2ccccc12)C(=O)Nc1ccccc1C(=O)c1ccccc1 [Example 16, 2-N-(N^a-acetyl-L-tryptophanyl)aminobenzophenone]
8	CC(C)(C)OC(=O)NCC(=O)N[C@@H](Cc1c[nH]c2ccccc12)C(=O)Nc1ccccc1C(=O)c1ccccc1 [Example 18, 2-N-(N^a-Boc-glycyl-L-tryptophanyl)aminobenzophenone]
0.4	O=C(N[C@@H](Cc1c[nH]c2ccccc12)C(=O)Nc1ccc(Cl)cc1C(=O)c1ccccc1)c1ccsc1 [Example 21, 2-N-(N^a-3-thienoyl-L-tryptophanyl)amino-5-chlorobenzophenone]
0.74	CC(C)(C)OC(=O)N[C@@H](Cc1c[nH]c2ccccc12)C(=O)Nc1ccc(Cl)cc1C(=O)c1ccccc1 [Example 2, 2-N-(N-a-Boc-L-tryptophanyl)amino-5-chlorobenzo phenone]
0.9	O=C(N[C@@H](Cc1c[nH]c2ccccc12)C(=O)Nc1ccccc1C(=O)c1ccccc1)c1ccc(Cl)cc1 [Example 15, 2-N-(N^α-p-Chlorobenzoyl-L-tryptophanyl)aminobenzophenone]
2.2	O=C(N[C@@H](CC1CNc2ccccc21)C(=O)Nc1ccc(Cl)cc1C(=O)c1ccccc1)c1ccsc1 (single isomer, unassigned) [Example 22B]
4.8	CC(C)(C)OC(=O)N[C@@H](Cc1c[nH]c2ccccc12)C(=O)Nc1ccccc1C(=O)c1ccccc1 [Example 5, 2-N-(N^a-Boc-L-tryptophanyl)aminobenzophenone]
0.19	O=C(N[C@@H](Cc1c[nH]c2ccccc12)C(=O)Nc1ccccc1C(=O)c1ccccc1)c1ccsc1 [Example 17, 2-N-(N^a-3-thienoyl-L-tryptophanyl)aminobenzophenone]

Same assay, conditions: read-out: IC50(µM) ^125I-CCK Pancreas; inhibition of 125I-CCK-33 binding, rat pancreas membranes, 37°C, 30 minutes

SMILES	IC50 [µM]
CSCC[C@H](NC(=O)[C@H](Cc1ccc(O)cc1)NC(=O)OCc1ccccc1)C(=O)NCC(=O)N[C@@H](Cc1c[nH]c2ccccc12)C(=O)Nc1ccccc1C(=O)c1ccccc1 [Example 20, 2-N-(N^a-Benzyloxycarbonyl-L-tryosyl-L-methionyl-glycyl-L-tryptophanyl)aminobenzophenone] (Cbz-YMGW-X1)	2
